Assay [1] deals with Ps. aeruginosa OPRD. Put plainly: Agar diffusion antibiogram (Example 1). In kind it is cell-based, Pseudomonas aeruginosa. The following applies: by order of Table 1 Ps. aeruginosa OPRD; concentration 50 μg/ml. How it is done: (§1) From the stock cultures, which were maintained at −80±5° C., revitalization of the strains (TSB, TSA and blood agar cultures, incubation at 37° C., 24 h) and preparation of working cultures (maintenance at 5° C.±3° C.) was carried out.
(§2) The study of microbial activity of the products was performed by the agar diffusion method (antibiograms). Preliminary experiments were performed to adjust the concentration of each strain to obtain a homogeneous field, and select the appropriate culture medium (in this case, Mueller Hinton agar). Whenever possible, large Petri plates (135 mm diameter) were used, but when the halo was too large, several plates of 90 mm diameter were used to test all the products. […] Addition of 1-2 ml of the corresponding dilution to sterile Petri plates (depending on size) and then pouring Mueller Hinton agar, tempered to 45° C. Allowing the agar to solidify at room temperature and then practicing wells in which the products to be tested will be placed. • Preparing the test substances in the appropriate concentration (suspension of 1 mg/ml in sterile water and serial dilutions). Placing 50 μl of the chosen concentration in each well (a previous study was done to determine which concentration provided the most appropriate halos in each strain). As a positive control, Penicillin G (at the same concentration) was used. • Incubation of the plates at 37±1° C. for 24 hours. Then the inhibition halos observed in each well were measured and gathered in Table 2 below.

The subject of assay [2] is Ps. aeruginosa MEXR. Put plainly: Agar diffusion antibiogram (Example 1). In kind it is cell-based, Pseudomonas aeruginosa. The following applies: by order of Table 1 Ps. aeruginosa MEXR; concentration 50 μg/ml. How it is done:
as §1, §2

Assay [3] deals with Ps. aeruginosa PAO1. Put plainly: Agar diffusion antibiogram (Example 1). In kind it is cell-based, Pseudomonas aeruginosa. Conditions: by order of Table 1 Ps. aeruginosa PAO1; concentration 50 μg/ml. How it is done:
as §1, §2
Background: Agar diffusion results depend on both activity and mobility in agar.

Assay [4] has as its system Ps. aeruginosa VIM2. Put plainly: Agar diffusion antibiogram (Example 1). In kind it is cell-based, Pseudomonas aeruginosa. Conditions: by order of Table 1 Ps. aeruginosa VIM2; concentration 50 μg/ml. How it is done:
as §1, §2

Assay [5] relates to E. coli C93 BLEE+. Put plainly: Agar diffusion antibiogram (Example 1). In kind it is cell-based, Escherichia coli. The following applies: by order of Table 1 E. coli C93 BLEE+; concentration 50 μg/ml. As to the method: as §1, §2
Assay [6] has as its system E. coli H24 BLEE+. Put plainly: Agar diffusion antibiogram (Example 1). In kind it is cell-based, Escherichia coli. Conditions: by order of Table 1 E. coli H24 BLEE+; concentration 50 μg/ml. As to the method: as §1, §2
Assay [7] relates to E. coli W207 BLEE+. Put plainly: Agar diffusion antibiogram (Example 1). Format: cell-based, Escherichia coli. The following applies: by order of Table 1 E. coli W207 BLEE+; concentration 50 μg/ml. As to the method:
as §1, §2

The next assay deals with E. coli not BLEE. Put plainly: Agar diffusion antibiogram (Example 1). In kind it is cell-based, Escherichia coli. Conditions: concentration 50 μg/ml. How it is done: as §1, §2
The subject of a further assay is E. coli ATCC 8739. Put plainly: Agar diffusion antibiogram (Example 1). In kind it is cell-based, Escherichia coli. The following applies: concentration 50 μg/ml. How it is done:
as §1, §2

Assay [8] has as its system C. freundii H44 BLEE+. Put plainly: Agar diffusion antibiogram (Example 1). In kind it is cell-based, Citrobacter freundii. The following applies: by order of Table 1 C. freundii H44 BLEE+; concentration 50 μg/ml. As to the method:
as §1
as §2, with “As a positive control, Penicillin G (at the same concentration) was used. • Incubation of the plates at 37±1° C. for 24 hours.” left out

The test system of assay [9] is E. coli C93 BLEE+. Put plainly: Agar diffusion antibiogram (Example 2). Conditions: concentration 50 μg/ml. In kind it is cell-based, Escherichia coli. How it is done:
as §1
(§3) The study of microbial activity of the products was performed by the agar diffusion method (antibiograms). Preliminary experiments were performed to adjust the concentration of each strain to obtain a homogeneous field, and the appropriate culture medium (in this case, Mueller Hinton agar) was selected. Whenever possible, large Petri plates (diameter of 135 mm) were used, but when the halo was too large, several plates of 90 mm diameter were used to test all the products. […] Addition of 1-2 ml of the corresponding dilution to sterile Petri plates (depending on size) and then pouring Mueller Hinton agar, tempered to 45° C. Allowing the agar to solidify at room temperature and then practicing wells in which the products will be placed to be tested. • Preparing the test substances in the appropriate concentration (suspension of 1 mg/ml in sterile water and serial dilutions). Placing 50 μl of the chosen concentration in each well (a previous study was done to see which concentration provided the most appropriate halos in each strain). As a positive control Penicillin G (at the same concentration) was used. • Incubation of the plates at 3±1° C. for 24 hours. Then the inhibition halos observed in each well were measured and gathered in Table 4 below.

In the next assay the test system is E. coli AC8 BLEE+. Put plainly: Agar diffusion antibiogram (Example 2). In kind it is cell-based, Escherichia coli. Conditions: concentration 50 μg/ml. As to the method:
as §1, §3

Assay [10] relates to E. coli H24 BLEE+. Put plainly: Agar diffusion antibiogram (Example 2). Format: cell-based, Escherichia coli. The following applies: concentration 50 μg/ml. As to the method: as §1, §3
For assay [11], the system named is E. coli W207 BLEE+. Put plainly: Agar diffusion antibiogram (Example 2). In kind it is cell-based, Escherichia coli. Conditions: concentration 50 μg/ml. As to the method:
as §1, §3

Assay [12] deals with K. pneumoniae ATCC 700603. Put plainly: Agar diffusion antibiogram (Example 1). Conditions: by order of Table 1 K. pneumoniae ATCC 700603; concentration 200 μg/ml. Format: cell-based, Klebsiella pneumoniae. How it is done:
as §1
as §2, with “As a positive control, Penicillin G (at the same concentration) was used. • Incubation of the plates at 37±1° C. for 24 hours.” left out

Another assay has as its system K. pneumoniae (BLEE+). Put plainly: Agar diffusion antibiogram (Example 1). In kind it is cell-based, Klebsiella pneumoniae. The following applies: by order of Table 1 K. pneumoniae BLEE+ clinical isolate; concentration 200 μg/ml. As to the method:
as §1
as §2, with “As a positive control, Penicillin G (at the same concentration) was used. • Incubation of the plates at 37±1° C. for 24 hours.” left out

The test system of assay [13] is K. pneumoniae ATCC 700603. Put plainly: Agar diffusion antibiogram (Example 2). In kind it is cell-based, Klebsiella pneumoniae. Conditions: concentration 200 μg/ml. As to the method:
as §1
as §3, with “As a positive control Penicillin G (at the same concentration) was used. • Incubation of the plates at 3±1° C. for 24 hours.” left out

For the next assay, the system named is K. pneumoniae BLEE+. Put plainly: Agar diffusion antibiogram (Example 2). Conditions: concentration 200 μg/ml. Format: cell-based, Klebsiella pneumoniae. As to the method: as §1
as §3, with “As a positive control Penicillin G (at the same concentration) was used. • Incubation of the plates at 3±1° C. for 24 hours.” left out

In assay [14] the test system is Ps. aeruginosa OPRD. Put plainly: Agar diffusion antibiogram (Example 2). Format: cell-based, Pseudomonas aeruginosa. The following applies: concentration 50 μg/ml. How it is done:
as §1, §3

The test system of the next assay is Ps. aeruginosa DACB. Put plainly: Agar diffusion antibiogram (Example 2). Format: cell-based, Pseudomonas aeruginosa. Conditions: concentration 50 μg/ml. How it is done:
as §1, §3

The test system of assay [15] is Ps. aeruginosa MEXR. Put plainly: Agar diffusion antibiogram (Example 2). In kind it is cell-based, Pseudomonas aeruginosa. The following applies: concentration 50 μg/ml. How it is done: as §1, §3
The subject of assay [16] is Ps. aeruginosa PAO1. Put plainly: Agar diffusion antibiogram (Example 2). Format: cell-based, Pseudomonas aeruginosa. The following applies: concentration 50 μg/ml. As to the method:
as §1, §3

Assay [17] has as its system Ps. aeruginosa VIM2. Put plainly: Agar diffusion antibiogram (Example 2). Format: cell-based, Pseudomonas aeruginosa. Conditions: concentration 50 μg/ml. As to the method:
as §1, §3

Assay [18] concerns C. freundii H44 BLEE+. Put plainly: Agar diffusion antibiogram (Example 2). In kind it is cell-based, Citrobacter freundii. The following applies: concentration 50 μg/ml. As to the method: as §1
as §3, with “As a positive control Penicillin G (at the same concentration) was used. • Incubation of the plates at 3±1° C. for 24 hours.” left out

Some results are limits rather than exact numbers.

Consider `CC1(C)S[C@@H]2[C@H](NC(=O)Cc3ccccc3)C(=O)N2[C@H]1C(=O)O` [PG, penicillin G], for which the Inhibition halos in the assay on Ps. aeruginosa OPRD [1], in the assay with Ps. aeruginosa MEXR [2], in the assay on Ps. aeruginosa PAO1 [3], in the assay on Ps. aeruginosa VIM2 [4], in the assay with E. coli C93 BLEE+ [5] and in the assay with E. coli H24 BLEE+ [6] was less than 1 mm throughout. In addition, the Inhibition halos in the assay on E. coli W207 BLEE+ [7] is given as less than 1 mm; with E. coli not BLEE, 21 mm; with E. coli ATCC 8739 it was 21 mm; in the assay with C. freundii H44 BLEE+ [8] it was less than 1 mm; with E. coli C93 BLEE+ [9], less than 1 mm; in the assay with E. coli AC8 BLEE+, less than 1 mm. The Inhibition halos (in the assay with E. coli H24 BLEE+ [10]; with E. coli W207 BLEE+ [11]; in [12]; in the assay with K. pneumoniae (BLEE+); in assay [13]; in the assay with K. pneumoniae BLEE+) was less than 1 mm each time. Further, the Inhibition halos is less than 1 mm with Ps. aeruginosa OPRD [14]; 9 mm in the assay on Ps. aeruginosa DACB; less than 1 mm in the assay on Ps. aeruginosa MEXR [15]; less than 1 mm in the assay with Ps. aeruginosa PAO1 [16]; less than 1 mm with Ps. aeruginosa VIM2 [17]; less than 1 mm in the assay with C. freundii H44 BLEE+ [18].

(Values after patent US11304974B2, “Nanosystems comprising silver and antibiotics and their use for the treatment of bacterial infections” (priority 2017, dated 2022).)
